± gives the standard deviation of the reports.
glass transition temperature [°C] | SMILES
249.00 | *c1cc(C(=O)OCCC)cc(N2C(=O)CC(C3Cc4ccccc4C4C(=O)N(*)C(=O)C43)C2=O)c1 (repeat unit)
56.00 | *OC(=O)C(C)NC(=O)CCCCC(=O)NC(C)C(=O)OC1COC2C(*)COC12 (repeat unit)
110.00 | *Cc1ccc(CNC(=O)CCCCCCCCCC(=O)N*)cc1 (repeat unit)
72.00 | *Oc1ccc(CC(NC(=O)CCc2ccc(OC(=O)COCC(*)=O)cc2)C(=O)OCC(C)C)cc1 (repeat unit)
10.00 | *c1cc(CCCCCCO[Si](C)(C)C)c(*)s1 (repeat unit)
10.00 | *C/C=C/C[Si](*)(C)CCCOc1ccc(-c2ccccc2)cc1 (repeat unit)
132.00 | *CCCC(=O)Oc1ccc(-c2ccc(OC(=O)c3ccc4c(c3)C(=O)N(*)C4=O)cc2)cc1 (repeat unit)
92.00 | *CCCCCCOC(=O)C(Cc1ccccc1)NC(=O)/C=C/C(=O)NC(Cc1ccccc1)C(=O)O* (repeat unit)
25.50 | *CCCCCCCCCCC(=O)NCCCCCC(=O)N* (repeat unit)

The remaining lines, values behind:

SMILES | glass transition temperature [°C]
*C(=O)Nc1ccc(Oc2ccc(C(=O)c3ccc(Oc4ccc(NC(=O)c5ccc(*)nc5)cc4)cc3)cc2)cc1 (repeat unit) | 170.00
*Oc1ccc(Sc2ccc(Oc3ccc(-c4ccc(-c5ccc(*)c(C(F)(F)F)c5)cc4)cc3C(F)(F)F)cc2)cc1 (repeat unit) | 164.50
*Oc1ccc(C2(c3ccc(OC(=O)c4ccc(C(*)=O)cc4)cc3)CC3CC2C2CCCC32)cc1 (repeat unit) | 322.00
*/C(Cl)=C(/*)CCCCCC (repeat unit) | 150.00
*Oc1ccc(-c2cc(-c3ccccc3)c(-c3ccc(OC(=O)c4ccc(C(*)=O)cc4-c4ccccc4)cc3)c(-c3ccccc3)c2-c2ccccc2)cc1 (repeat unit) | 225.00
*CCN(*)C(=O)c1ccccc1 (repeat unit) | 111.00
*C(C(=O)OC)C(*)C(=O)OC(C)(C)C (repeat unit) | 84.00
*C(=O)Nc1ccc(Oc2cccc(Oc3ccc(NC(=O)c4ccc5c(c4)C(=O)N(c4ccc(Oc6cccc(Oc7ccc(N8C(=O)c9ccc(*)cc9C8=O)cc7)c6C#N)cc4)C5=O)cc3)c2)cc1 (repeat unit) | 217.00
*O[Si](*)(C)CCc1cc(-c2nnc(-c3ccc(OCCCCCCCCCCCC)cc3)o2)ccc1-c1nnc(-c2ccc(OCCCCCCCCCCCC)cc2)o1 (repeat unit) | 156.00
*C(=O)c1ccc2c(c1)C(=O)N(c1cccc(C(=O)c3ccc(Oc4ccc(N5C(=O)c6ccc(*)cc6C5=O)cc4)cc3)c1)C2=O (repeat unit) | 251.00
*C(=O)Oc1ccc(OC(=O)c2ccc3c(c2)C(=O)N(c2ccc(Cc4ccc(N5C(=O)c6ccc(*)cc6C5=O)cc4)cc2)C3=O)c(C(C)(C)C)c1 (repeat unit) | 160.00
*CC(*)(C)C(=O)OCCC#N (repeat unit) | 91.00
*Oc1ccc(S(=O)(=O)c2ccc(Oc3ccc(P(=O)(c4ccccc4)c4ccc(*)cc4)cc3)cc2)cc1 (repeat unit) | 231.00
*CC(*)c1cc(Br)ccc1OC (repeat unit) | 86.00
*Oc1ccc(C(c2ccc(Oc3ccc(C(=O)c4cc(C(=O)c5ccc(*)cc5)cc(C(C)(C)C)c4)cc3)cc2)(C(F)(F)F)C(F)(F)F)cc1 (repeat unit) | 181.00
*Oc1ccc(S(=O)(=O)c2ccc(Oc3ccc(C(=O)c4cc(Br)cc(C(=O)c5ccc(*)cc5)c4)cc3)cc2)cc1 (repeat unit) | 192.00
*CC(*)C(=O)OCC(CC)CCCC (repeat unit) [Poly(2-ethylhexyl acrylate)] | -57.08 ± 7
*O[Si](*)(C)c1c(F)c(F)c(F)c(F)c1F (repeat unit) | -25.00
